Data as given in patent US20250289790A1, “UV LIGHT STABILIZERS” (BASF SE, priority 2022, published 2025).

Experiment: Solubility at room temperature in xylene / toluene
Format: physicochemical

soluble in xylene: less than 1%
Solubility at room temperature [g] xylene (room temperature): 2 g
Structure (SMILES): CC(C)(C)c1cc(CCC(=O)OCC(COC(=O)CCc2cc(-n3nc4ccc(Cl)cc4n3)c(O)c(C(C)(C)C)c2)(COC(=O)CCc2cc(-n3nc4ccc(Cl)cc4n3)c(O)c(C(C)(C)C)c2)COC(=O)CCc2cc(-n3nc4ccc(Cl)cc4n3)c(O)c(C(C)(C)C)c2)cc(-n2nc3ccc(Cl)cc3n2)c1O [Example C3]
